According to PubChem BioAssay (NCI):
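A five-concentration, 48-hour dose response in 96-well plates underlies each endpoint, interpolated linearly between surrounding concentrations. Definition used: TGI = concentration required for complete inhibition of growth.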

Tests used:
Assay in all cases: NCI anticancer screen, dose series, 48 h
[1] = system: RPMI-8226 leukemia
[2] = system: SK-MEL-28 melanoma
[3] = system: HCC-2998 colon
[4] = system: OVCAR-5 ovarian
[5] = system: SF-539 CNS
[6] = system: HS 578T breast
[7] = system: SK-MEL-5 melanoma
[8] = system: HOP-92 NSCLC
[9] = system: MOLT-4 leukemia
[10] = system: NCI-H23 lung
[11] = system: SNB-19 CNS
[12] = system: MCF7 breast
[13] = system: 786-0 renal
[14] = system: CAKI-1 renal
[15] = system: OVCAR-3 ovarian
[16] = system: M14 melanoma
[17] = system: MDA-MB-435
[18] = system: NCI-H226 lung
[19] = system: RXF 393 renal

Structure (SMILES)	TGI [1] [µM]	TGI [2] [µM]	TGI [3] [µM]	TGI [4] [µM]	TGI [5] [µM]	TGI [6] [µM]	TGI [7] [µM]	TGI [8] [µM]	TGI [9] [µM]	TGI [10] [µM]	TGI [11] [µM]	TGI [12] [µM]	TGI [13] [µM]	TGI [14] [µM]	TGI [15] [µM]	TGI [16] [µM]	TGI [17] [µM]	TGI [18] [µM]	TGI [19] [µM]
CC[N+](CC)(CCNCC(N)=O)CC(N)=O	> 10	> 10	> 10	> 10	> 10	> 10	> 10	> 10	> 10	> 10	> 10	> 10	> 10	> 10	> 10	> 10	> 10	> 10	> 10
COc1ccc(C(C)NNC(=O)c2ccncc2)c(OC)c1 (stereo not drawn)	> 100	> 100	> 100	> 100	> 100	> 100	> 100	> 100	> 100	> 100	> 100	> 100	> 100	> 100	> 100	> 100	> 100	> 100	> 100
COc1cc(/C=C2\CCC(C)C3C2=NN(C(C)=O)C3c2cc(OC)c(OC)c(OC)c2)cc(OC)c1OC (stereo not drawn)	> 100	> 51.2	> 100	> 36.3	> 100	> 92.2	> 100	> 100	> 100	> 100	> 100	> 100	> 100	> 100	> 100	> 100	> 100	> 100	> 100
CCSc1n/c(=C\c2ccco2)c2nnnn12	> 100	> 100	> 100	> 100	> 100	> 100	> 100	> 100	> 100	> 100	> 100	> 100	> 100	> 100	> 100	> 100	> 100	> 100	> 100
CCC1(CC)SCc2nc3ccccc3n21	65.7	> 100	> 100	> 100	> 100	82.9	36.5	61.2	84.3	> 100	> 100	93.7	> 100	95.7	> 100	70.5	68	88.8	94.5
O=C1N=c2ccccc2=C1c1c(O)[nH]c2ccccc12	> 100	> 100	63.5	12.4		> 100	> 100	81.1	> 100	69.2	67.4	25.3	21.6	> 100	41.1	> 100	> 100	> 100	16.3
